Publication PMC8427247, “Actinobacillus utilizes a binding protein–dependent ABC transporter to acquire the active form of vitamin B6” (The Journal of Biological Chemistry, 2021)

Assays:
[1] = tested on: AfuA E229A; parameters: method as in PMID 26295949; conditions: AfuA E229A mutant; cited from earlier work
[2] = tested on: AfuA D206A; parameters: method as in PMID 26295949; conditions: AfuA D206A mutant; cited from earlier work
[3] = biological target: T1, P5PA WT (Actinobacillus pleuropneumoniae, UniProt B0BUC2); assay: Isothermal titration calorimetry (ITC), ligand titrated into P5PA; assay type: binding
Description: The purification method described in the P5PA protein purification section was modified as follows in order to purify apo-P5PA for ITC. Before elution, P5PAwas denatured in the gravity column. To denature P5PA, 6 M guanidine hydrochloride (GdHCl) was applied to the column, after which a refolding step was performed by stepwise addition of 4.5 M GdHCl, 3 M GdHCl, and finally 1.5 M GdHCl. The protein was then washed with lysis buffer and eluted with elution buffer ([15]). The subsequent purification steps were the same as previously described.
ITC was performed using an auto-iTC200 (Microcal) at the Structure and Biophysical Core Facility within the Peter Gilgan Centre for Research & Learning (Hospital for Sick Children, Toronto, Canada). Runs consisted of titrating ligand loaded into the injection syringe against purified protein, which was loaded into the sample cell. About 45 μM of purified P5PA was stored in ITC buffer (20 mM Tris, pH 8, and 100 mM NaCl) at 4 °C. The same buffer was used to make solutions of 300 μM G6P, 300 μM P5P, and 45 μM bovine serum albumin. P5PA, bovine serum albumin, and ITC buffer alone were titrated with P5P or G6P. The parameter setting was 2 μl/injection for a total of 20 injections. Data applied to calculate binding constants were referenced against runs performed with ligand alone to control for the heat of ligand solvation.

[4] = biological target: T1, P5PA WT; assay: Microscale thermophoresis (MST) with fluorescently labeled P5PA; assay type: binding
Description: (§1) P5PA was fluorescently labeled using RED-NHS Second Generation Protein Labeling Kit (NanoTemper). Briefly, 90 μl of purified apo-P5PA at 10 μM was mixed with 10 μl of the provided labeling dye at 300 μM. The mixture was incubated in dark for 30 min and loaded to a special gravity column that is pre-equilibrated in PBS with 0.05% Tween-20 (PBST). After washing the column with 550 μl of PBST, another 450 μl of PBST was added to elute the fluorescently labeled apo-P5PA. The yield of the labeled P5PA was determined by 280-nm readings made on a Nanodrop.
(§2) A target compound was successively diluted in PBST by a dilution factor of two to make a total of 16 different concentrations. Then, 10 μl of the labeled P5PA was added to an equal volume of the diluted compounds and loaded to standard capillaries (NanoTemper). The Binding Affinity Mode of Monolith NT.115 (NanoTemper) was used to detect fluorescence changes and deduct Kd.
(§3) Supplementary Table2. The concentrations of protein and compounds used in MST
(§4) Labeled Protein Concentration Compound Highest Working
(§5) P5PA 25 Pyridoxal-5’-phosphate (P5P) 1.40 µM
(§6) P5PA 25 Pyridoxamine (PM) 448 mM

[5] = tested on: AfuA H205A; parameters: method as in PMID 26295949; conditions: AfuA H205A mutant; cited from earlier work
[6] = biological target: T2, P5PA H203A (Actinobacillus pleuropneumoniae, UniProt B0BUC2, H229A); assay: Microscale thermophoresis (MST) with fluorescently labeled P5PA mutant; assay type: binding
T2 sequence (B0BUC2 26-343 H229A): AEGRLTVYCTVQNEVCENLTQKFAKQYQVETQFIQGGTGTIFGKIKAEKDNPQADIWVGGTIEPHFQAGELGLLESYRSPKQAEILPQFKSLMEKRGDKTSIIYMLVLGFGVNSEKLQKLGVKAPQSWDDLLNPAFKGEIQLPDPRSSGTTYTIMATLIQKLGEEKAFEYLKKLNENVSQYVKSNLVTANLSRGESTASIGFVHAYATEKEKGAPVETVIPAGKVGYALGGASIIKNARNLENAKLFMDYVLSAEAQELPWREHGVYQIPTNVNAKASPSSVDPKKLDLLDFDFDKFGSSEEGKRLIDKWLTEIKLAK
Description: as §1, §2, §3, §4, §5, §6

[7] = biological target: T3, P5PA T149A (Actinobacillus pleuropneumoniae, UniProt B0BUC2, T175A); assay: as above; assay type: binding
T3 sequence (B0BUC2 26-343 T175A): T2 sequence (B0BUC2 26-343 H229A)
Description: as §1, §2, §3, §4, §5, §6

[8] = biological target: T4, P5PA Y103A (Actinobacillus pleuropneumoniae, UniProt B0BUC2, Y129A); assay: as above; assay type: binding
T4 sequence (B0BUC2 26-343 Y129A): T2 sequence (B0BUC2 26-343 H229A)
Description: as §1, §2, §3, §4, §5, §6

[9] = tested on: A. pleuropneumoniae pdxS and pdxT disrupted mutants; parameters: method as in PMID 28448619; conditions: supplementation with 10 μM P5P; cited from earlier work
[10] = tested on: E. coli K-12 ΔpdxB mutant; assay: E. coli growth assay in M9 minimal media supplemented with P5P; assay type: cell-based, Escherichia coli
Description: The ΔpdxB mutant of E. coli K-12 strain was obtained from the Keio collection ([45]). The ΔpdxB mutant was transformed with either pSC101, pSC101-P5PAB, or pSC101-P5PAB + AfuC and grown in LB broth overnight at 37 °C with shaking. The starters were then washed twice with M9 medium and inoculated at an absorbance of 0.05 at 600 nm into M9 medium supplemented with P5P. The P5P concentrations used were 0, 1, 2.5, and 5 μM. Growth assays were performed in both culture tubes and 100-well microplates ([15], [17]). For cell growth in culture tubes, 5 ml of P5P-supplemented M9 was used, and readings of absorbance at 600 nm were measured after a 23-h incubation at 37 °C with shaking. For cell growth in 100-well microplates, 200 μl of P5P-supplemented M9 was applied to each well, and microplates were incubated in a Bioscreen C microplate reader (Growth Curves USA) at 37 °C with shaking. Absorbance values at 600 nm were measured every 15 min for a time course of 40 h.

[11] = tested on: WT strain of E. coli K-12; assay: as above; assay type: cell-based, Escherichia coli; conditions: P5P 0 to 10 μM, 24 h incubation
[12] = MST, P5PA WT, n = 3, read-out: Kd

Compound: O=C[C@H](O)[C@@H](O)[C@H](O)[C@H](O)COP(=O)(O)O [G6P, glucose-6-phosphate]
- binding affinity [1]: undetectable
- binding affinity [2]: undetectable
- binding activity ([3]; ITC, 300 μM ligand into 45 μM P5PA): no significant binding activity
- released heat for each titration ([3]; ITC, 300 μM ligand into 45 μM P5PA, insufficient to calculate a dissociation constant): approximately 3 kJ/mol
- Kd [4, 12]: 11000 ± 3000 µM
- binding affinity [5]: undetectable

Compound: Cc1ncc(COP(=O)(O)O)c(C=O)c1O [P5P, pyridoxal-5′-phosphate]
- Kd [6]: 10 ± 4 µM
- Kd [7]: 1.3 ± 0.3 µM
- Kd [8]: 17 ± 8 µM
- growth of pdxS/pdxT mutants [9]: rescued growth
- Kd [3]: 0.036 ± 0.007 µM
- Kd [4]: 0.028 ± 0.015 µM
- growth defects of the four transformants and the ΔpdxB mutant ([10]; M9, P5P at 5 μM): partially restored
- growth of ΔpdxB mutant expressing pSC101-P5PAB + AfuC ([10]; M9, P5P at 1 and 2.5 μM, p < 0.01, two-tailed t test): rescued
- growth of ΔpdxB mutant ([10]; M9 minimal media, P5P 0 to 10 μM, 24 h incubation): severe growth deficiency in all conditions except P5P concentrations of 5 and 10 μM
- growth of WT strain [11]: not affected by the concentration of supplemented P5P

Compound: Cc1ncc(CO)c(C=O)c1O [PL, pyridoxal]
- Kd [4, 12]: 13000 ± 4000 µM

Compound: Cc1ncc(CO)c(CN)c1O [PM, pyridoxamine]
- Kd [4, 12]: 8000 ± 4000 µM
